The text below walks through data of patent EP4174174A1, “TAILOR-MADE EXTREMOPHILIC FUNGAL LACCASES” (priority 2021, dated 2023).

Common to all, as to format: biochemical
Experiment [1] deals with RY2 laccase (parental enzyme, SEQ ID NO: 1) (basidiomycete PM1, UniProt Q12571). As to the method: (§1) Flask production and purification. The S. cerevisiae clones expressing selected laccase variants were grown in duplicate, in 100mL flasks with 30mL expression medium (containing […] and 3% ethanol) (Camarero et al. Applied and Environmental Microbiology 2012, 78,5). […] After 3 days of fermentation, cultures were treated as previously described (De Salas et al. Green Chemistry 2019 21, 5374-5385). Purification of the enzymes by High Pressure Liquid Chromatography (HPLC) was carried out in 3 chromatographic steps: two anion exchange steps using a HiPrep-QFF 16/10 column in a 100mL gradient of 0-40% elution buffer, and a MonoQ-HR 5/5 column in a 30mL gradient of 0-25% elution buffer, followed by size exclusion chromatography with a Superdex75. Fractions containing laccase activity (with 3mM ABTS in 50mM citrate-phosphate pH 3) were pooled, dialyzed in Tris-HCI pH 7 and concentrated after each chromatographic step. Enzyme purification was confirmed by the electrophoretic mobility in SDS-PAGE (12% acrylamide) stained with Coomassie brilliant blue.
(§2) To calculate Km and kcat values the average Vmax was represented versus substrate concentration and fitted to a single rectangular hyperbola function in SigmaPlot (version 14.0) software, where parameter "a" was equal to kcat and parameter "b" was equal to Km.

Experiment [2] deals with RY2 laccase variant L2 (+F460M; F392N, F396I, F460M) (basidiomycete PM1, UniProt Q12571, F413N/F417I/F481M, form not given). On the procedure:
as §1, §2

Experiment [3] deals with RY2 laccase variant L3 (+D263V; F392N, F396I, F460M, D263V). The experiment can be described thus: Kinetic constants for the oxidation of ABTS and DMP by pure laccase. As to the method: as §1, §2
Experiment [4] has as its system RY2 laccase variant L4 (+A458L; F392N, F396I, F460M, D263V, A458L). The description is as above. As to the method: as §1, §2

Where two headings read alike, the source gives them in different places.

RY2 laccase variant L2 (+F460M; F392N, F396I, F460M), sequence (Q12571 entry or part of it F413N/F417I/F481M, form open): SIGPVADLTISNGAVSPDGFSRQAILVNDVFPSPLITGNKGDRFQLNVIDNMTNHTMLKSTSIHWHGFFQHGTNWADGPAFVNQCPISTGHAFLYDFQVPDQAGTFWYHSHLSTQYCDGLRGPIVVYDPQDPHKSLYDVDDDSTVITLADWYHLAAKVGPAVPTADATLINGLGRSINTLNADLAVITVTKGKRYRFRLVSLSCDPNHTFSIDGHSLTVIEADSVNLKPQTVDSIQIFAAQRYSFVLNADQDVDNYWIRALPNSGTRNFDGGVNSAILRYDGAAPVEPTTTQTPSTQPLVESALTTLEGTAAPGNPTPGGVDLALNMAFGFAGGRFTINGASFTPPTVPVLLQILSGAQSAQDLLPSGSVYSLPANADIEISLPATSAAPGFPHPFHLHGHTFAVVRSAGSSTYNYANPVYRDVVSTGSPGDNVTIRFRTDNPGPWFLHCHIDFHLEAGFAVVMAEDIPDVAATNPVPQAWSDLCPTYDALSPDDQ
RY2 laccase (parental enzyme, SEQ ID NO: 1), sequence (Q12571 entry or part of it): as the sequence (Q12571 entry or part of it F413N/F417I/F481M, form open) above

What is called kcat is the number of substrate molecules converted per active site and unit of time at saturation. For orientation: Km means the substrate concentration at which the rate is half of its maximum. Turning to `CCn1c(=NN=c2sc3cc(S(=O)(=O)O)ccc3n2CC)sc2cc(S(=O)(=O)O)ccc21` [ABTS], the kcat amounted to 543 ± 17 s⁻¹ in experiment [1] (substrate ABTS, pH 3); 231 ± 5.6 s⁻¹ in experiment [2] (substrate ABTS, pH 3); 123 ± 5.5 s⁻¹ in experiment [3] (substrate ABTS, pH 3); 136 ± 2.7 s⁻¹ in experiment [4] (substrate ABTS, pH 3). Also, the Km in experiment [3] (substrate ABTS, pH 3) worked out at 460 ± 40 µM; in experiment [4] (substrate ABTS, pH 3), 680 ± 40 µM.
`COc1cccc(OC)c1O` [DMP, 2,6-dimethoxyphenol]: the catalytic constant (kcat) was 123 ± 6 s⁻¹ in experiment [1] (substrate DMP, pH 5); 89 ± 6.2 s⁻¹ in experiment [2] (substrate DMP, pH 8); 9.5 ± 0.1 s⁻¹ in experiment [2] (substrate DMP, pH 9); 82.3 ± 7.6 s⁻¹ in experiment [3] (substrate DMP, pH 8); 21.7 ± 1.3 s⁻¹ in experiment [3] (substrate DMP, pH 9); 0.79 ± 0.03 s⁻¹ in experiment [3] (substrate DMP, pH 10). The kcat in experiment [4] (substrate DMP, pH 9) turned out to be 26 ± 0.28 s⁻¹; in experiment [4] (substrate DMP, pH 10), 2 ± 0.05 s⁻¹. For the same compound, the Km in experiment [3] (substrate DMP, pH 8) came out at 1500 ± 120 µM; in experiment [3] (substrate DMP, pH 9) it was 300 ± 30 µM; in experiment [3] (substrate DMP, pH 10), 27 ± 1 µM; in experiment [4] (substrate DMP, pH 8), 1710 ± 100 µM; in experiment [4] (substrate DMP, pH 9) it was 430 ± 10 µM; in experiment [4] (substrate DMP, pH 10) it was 22 ± 2 µM.
